From patent US20130011845A1, “MICRORNA REGULATING THE INSULIN SIGNALING PATHWAY, AND METHOD FOR SCREENING MATERIAL FOR CONTROLLING THE ACTION OF A TARGET THEREOF” (SNU R & DB Foundation, priority 2009, published 2013)

Legend:
Type in all cases: cell-based
[1] = tested on: ebf 3′UTR; assay: dual-luciferase 3′UTR reporter assay, ebf; details: luciferase reporter with ebf 3′UTR, drosophila S2 cell lines; average of at least two independent experiments
Method: (§1) In order to determine whether the target genes identified in Example 7 are in actuality targets of miR-8 and miR-200 family miRNAs, the inventors performed cloning. In other words, they inserted a luciferase gene into downstream of each target gene's 3′UTR containing the miRNA target sites. Specifically, in order to obtain cDNAs of respective target genes, from drosophila S2 cell lines or human Hela cell lines, total RNA was extracted by using RNeasy mini kit (QIAGEN, US). 1 μg of total RNA and 1 μl of Oligo-dT (Invitrogen, US) were charged with up to 50 μl of distilled water, and placed into SuperScript First-Strand Synthesis System (Invitrogen, US), followed by RT-PCR reaction. Through the reaction at 65° C. for 6 min, at 4° C. for 5 min, at 42° C. for 60 min, at 95° C. for 5 min, and at 4° C. for 5 min, cDNA was synthesized. […]
(§2) Reporter plasmids and renilla luciferase expression vectors (Promega, US), as noted in Table 4, and miRNAs of miR-200 family of miR-141, miR-200a (hsa-miR-200a, SEQ ID: 87: 5′-[…]-3′), miR-200b, miR-200c (has-miR-200c, SEQ ID: 88: 5′-[…]-3′) and miR-429, and miR-8 (dme-miR-8, SEQ ID: 89: 5′-[…]-3′) were bought from Samchonri and cotransfected into drosophila S2 cell lines or human Hela cell lines. Then, the activities of luciferase were measured through dual-luciferase assay (Promega, US) by a luminometer (Biorad). […]

[2] = tested on: Lap1 3′UTR; assay: dual-luciferase 3′UTR reporter assay, pAC-Lap1; details: luciferase reporter with Lap1 3′UTR, drosophila S2 cell lines; average of at least two independent experiments
Method: as §1, §2

[3] = tested on: Ced-12 3′UTR; assay: dual-luciferase 3′UTR reporter assay, pAC-Ced-12; details: luciferase reporter with Ced-12 3′UTR, drosophila S2 cell lines; average of at least two independent experiments
Method: as §1, §2

[4] = tested on: CG8445 3′UTR; assay: dual-luciferase 3′UTR reporter assay, pAC-CG8445; details: luciferase reporter with CG8445 3′UTR, drosophila S2 cell lines; average of at least two independent experiments
Method: as §1, §2

[5] = tested on: dbo 3′UTR; assay: dual-luciferase 3′UTR reporter assay, pAC-dbo; details: luciferase reporter with dbo 3′UTR, drosophila S2 cell lines; average of at least two independent experiments
Method: as §1, §2

[6] = tested on: ush 3′UTR; assay: dual-luciferase 3′UTR reporter assay, pAC-ush; details: luciferase reporter with ush 3′UTR, drosophila S2 cell lines; average of at least two independent experiments
Method: as §1, §2

[7] = tested on: CG12333 3′UTR; assay: dual-luciferase 3′UTR reporter assay, pAC-CG12333; details: luciferase reporter with CG12333 3′UTR, drosophila S2 cell lines; average of at least two independent experiments
Method: as §1, §2

[8] = tested on: Lar 3′UTR; assay: dual-luciferase 3′UTR reporter assay, pAC-Lar; details: luciferase reporter with Lar 3′UTR, drosophila S2 cell lines; average of at least two independent experiments
Method: as §1, §2

With “5′-UAAUACUGUCAGGUAAAGAUGUC-3′ (listed as RNA, chemistry not given here) [miR-8]” the “Repression fold, ebf” value [1] was 0.75 fold, the “Repression fold, Lap1” value [2] was 0.46 fold and the “Repression fold, Ced-12” value [3] was 0.51 fold. For the same substance, the “Repression fold, CG8445” value [4] was 0.43 fold, the “Repression fold, dbo” value [5] was 0.54 fold and the “Repression fold, ush” value [6] was 0.71 fold. The “Repression fold, CG12333” value [7] was 0.59 fold and the “Repression fold, Lar” value [8] was 0.42 fold.
